Each block holds one molecule with its values, some of them ahead of it.
Columns and labels:
[1] = target: Cyclin-dependent kinase 7 (Homo sapiens, UniProt P50613)
Description: Inhibition of CDK7 (unknown origin) using ULight 4EBP1 peptide as substrate incubated for 2 hrs in presence of ATP by FRET assay

A549 = assay: Antiproliferative activity against human A549 cells incubated for 72 hrs by celltiter-glo luminescent assay; format: functional, cell-based; conditions: A549, 72 h
MV4-11 [2] = assay: Antiproliferative activity against human MV4-11 cells incubated for 72 hrs by celltiter-glo luminescent assay; conditions: MV4-11, 72 h
KG-1 = assay: Antiproliferative activity against human KG-1 cells incubated for 72 hrs by celltiter-glo luminescent assay; conditions: KG-1, 72 h
[3] = target: Cyclin-dependent kinase 9 (Homo sapiens, UniProt P50750)
Chain of Cyclin-dependent kinase 9 (P50750 whole entry): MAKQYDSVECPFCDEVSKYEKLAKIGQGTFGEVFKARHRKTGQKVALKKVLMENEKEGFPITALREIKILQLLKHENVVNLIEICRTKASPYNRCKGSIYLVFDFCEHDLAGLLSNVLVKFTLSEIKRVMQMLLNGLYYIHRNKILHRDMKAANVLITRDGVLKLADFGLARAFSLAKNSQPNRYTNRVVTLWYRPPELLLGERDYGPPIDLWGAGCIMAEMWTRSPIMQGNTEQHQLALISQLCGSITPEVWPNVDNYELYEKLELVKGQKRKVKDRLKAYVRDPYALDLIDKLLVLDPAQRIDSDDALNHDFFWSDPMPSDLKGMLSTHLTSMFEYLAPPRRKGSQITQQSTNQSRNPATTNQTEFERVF
Description: Inhibition of CDK9 (unknown origin) using ULight 4EBP1 peptide as substrate incubated for 2 hrs in presence of ATP by FRET assay

PC-9 = assay: Antiproliferative activity against human PC-9 cells incubated for 72 hrs by celltiter-glo luminescent assay; conditions: PC-9, 72 h
CESS = assay: Antiproliferative activity against human CESS cells incubated for 72 hrs by celltiter-glo luminescent assay
HT-29 = assay: Antiproliferative activity against human HT-29 cells incubated for 72 hrs by celltiter-glo luminescent assay; conditions: HT-29, 72 h
[4] = target: Cyclin-dependent kinase 2 (Homo sapiens, UniProt P24941); assay: Inhibition of CDK2 (unknown origin) using ULight 4EBP1 peptide as substrate incubated for 2 hrs in presence of ATP by FRET assay
Rec1 = assay: Antiproliferative activity against human REC1 cells incubated for 72 hrs by celltiter-glo luminescent assay; conditions: Rec1, 72 h
Histone deacetylase 3 = Histone deacetylase 3 (Homo sapiens, UniProt O15379)
Histone deacetylase 1 = Histone deacetylase 1 (Homo sapiens, UniProt Q13547)
Description: Inhibition of human recombinant HDAC1 using Ac-Lys-Tyr-Lys(eta-acetyl)-AMC as substrate incubated for 24 hrs by fluorescence based Envision plate reader analysis

[5] = target: Protein deacetylase HDAC6 (Homo sapiens, UniProt Q9UBN7)
Chain of Protein deacetylase HDAC6 (Q9UBN7 whole entry): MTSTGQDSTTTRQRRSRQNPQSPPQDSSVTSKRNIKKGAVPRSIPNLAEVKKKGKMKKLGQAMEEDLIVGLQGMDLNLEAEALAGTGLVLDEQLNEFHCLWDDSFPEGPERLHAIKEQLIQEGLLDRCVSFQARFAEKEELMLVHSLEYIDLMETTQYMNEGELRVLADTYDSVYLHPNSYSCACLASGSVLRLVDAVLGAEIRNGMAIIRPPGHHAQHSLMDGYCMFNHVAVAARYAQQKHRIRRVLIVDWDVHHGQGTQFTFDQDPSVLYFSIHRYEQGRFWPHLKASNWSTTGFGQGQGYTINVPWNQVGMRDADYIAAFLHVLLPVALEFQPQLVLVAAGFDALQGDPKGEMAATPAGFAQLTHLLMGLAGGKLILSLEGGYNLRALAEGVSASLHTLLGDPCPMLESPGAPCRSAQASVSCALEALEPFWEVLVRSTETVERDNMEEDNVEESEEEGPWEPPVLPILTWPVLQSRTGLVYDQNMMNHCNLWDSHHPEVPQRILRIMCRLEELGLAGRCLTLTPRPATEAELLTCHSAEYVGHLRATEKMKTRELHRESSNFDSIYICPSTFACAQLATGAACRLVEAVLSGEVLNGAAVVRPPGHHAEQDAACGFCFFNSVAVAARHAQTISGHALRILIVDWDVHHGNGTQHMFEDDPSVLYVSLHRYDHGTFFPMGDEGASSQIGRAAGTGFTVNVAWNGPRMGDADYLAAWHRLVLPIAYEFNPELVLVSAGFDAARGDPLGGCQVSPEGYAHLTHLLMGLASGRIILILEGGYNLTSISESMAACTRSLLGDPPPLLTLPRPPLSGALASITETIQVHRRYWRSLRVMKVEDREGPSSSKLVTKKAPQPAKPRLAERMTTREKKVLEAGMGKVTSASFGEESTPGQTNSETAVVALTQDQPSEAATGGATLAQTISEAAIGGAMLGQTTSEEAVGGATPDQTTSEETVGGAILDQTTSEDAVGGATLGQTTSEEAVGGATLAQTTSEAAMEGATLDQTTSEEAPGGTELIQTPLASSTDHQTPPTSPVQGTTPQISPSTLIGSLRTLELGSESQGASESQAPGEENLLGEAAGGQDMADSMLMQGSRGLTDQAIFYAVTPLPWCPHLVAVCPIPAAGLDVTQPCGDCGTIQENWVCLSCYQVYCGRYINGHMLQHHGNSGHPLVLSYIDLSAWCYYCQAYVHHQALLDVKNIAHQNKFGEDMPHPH
Description: Inhibition of human recombinant HDAC6 using Boc-Lys(eta-acetyl)-AMC as substrate incubated for 24 hrs by fluorescence based Envision plate reader analysis

Histone deacetylase 4 = Histone deacetylase 4 (Homo sapiens, UniProt P56524); assay: Inhibition of human recombinant HDAC4 using Ac-Leu-Gly-Lys(Tfa)-AMC as substrate incubated for 24 hrs by fluorescence based Envision plate reader analysis
Chain of Histone deacetylase 4 (P56524 whole entry): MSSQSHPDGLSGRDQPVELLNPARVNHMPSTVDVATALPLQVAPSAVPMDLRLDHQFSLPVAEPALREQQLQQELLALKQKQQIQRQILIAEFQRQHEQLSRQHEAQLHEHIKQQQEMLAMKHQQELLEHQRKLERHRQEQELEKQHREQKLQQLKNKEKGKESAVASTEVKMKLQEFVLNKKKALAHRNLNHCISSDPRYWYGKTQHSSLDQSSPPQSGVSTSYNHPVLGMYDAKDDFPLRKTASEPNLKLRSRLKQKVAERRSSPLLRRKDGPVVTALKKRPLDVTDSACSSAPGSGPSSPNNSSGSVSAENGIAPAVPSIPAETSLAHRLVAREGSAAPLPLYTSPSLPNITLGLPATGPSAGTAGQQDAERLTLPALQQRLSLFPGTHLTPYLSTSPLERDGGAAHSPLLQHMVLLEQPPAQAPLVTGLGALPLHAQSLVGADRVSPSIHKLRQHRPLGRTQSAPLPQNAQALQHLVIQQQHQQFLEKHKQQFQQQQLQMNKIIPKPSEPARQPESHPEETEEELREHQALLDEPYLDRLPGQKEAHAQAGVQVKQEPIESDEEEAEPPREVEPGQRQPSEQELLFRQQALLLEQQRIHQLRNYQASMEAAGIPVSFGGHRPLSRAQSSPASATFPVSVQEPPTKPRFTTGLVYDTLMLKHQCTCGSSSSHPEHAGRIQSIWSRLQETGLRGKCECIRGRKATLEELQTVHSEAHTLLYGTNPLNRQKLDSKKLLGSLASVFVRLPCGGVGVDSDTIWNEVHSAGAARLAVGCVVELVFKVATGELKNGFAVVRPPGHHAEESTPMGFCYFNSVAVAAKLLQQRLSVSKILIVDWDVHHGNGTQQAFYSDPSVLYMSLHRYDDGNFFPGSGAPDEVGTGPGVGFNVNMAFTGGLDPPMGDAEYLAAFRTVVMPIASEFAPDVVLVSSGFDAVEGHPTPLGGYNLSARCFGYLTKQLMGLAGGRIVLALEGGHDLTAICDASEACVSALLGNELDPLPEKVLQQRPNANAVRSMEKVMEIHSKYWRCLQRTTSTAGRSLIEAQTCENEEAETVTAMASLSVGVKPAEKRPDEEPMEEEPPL

MV4-11 [6] = assay: Antitumor activity against human MV4-11 cells xenografted in female nu/nu mouse assessed as test to control ratio at 50 mg/kg, sc bid for 19 days; format: functional; conditions: time 19 day
[7] = target: Serine/threonine-protein kinase Chk1 (Homo sapiens, UniProt O14757); assay: Inhibition of CHK1 (unknown origin)
[8] = target: Serine/threonine-protein kinase 17B (Homo sapiens, UniProt O94768); assay: Inhibition of DRAK2 (unknown origin)
Chain of Serine/threonine-protein kinase 17B (O94768 whole entry): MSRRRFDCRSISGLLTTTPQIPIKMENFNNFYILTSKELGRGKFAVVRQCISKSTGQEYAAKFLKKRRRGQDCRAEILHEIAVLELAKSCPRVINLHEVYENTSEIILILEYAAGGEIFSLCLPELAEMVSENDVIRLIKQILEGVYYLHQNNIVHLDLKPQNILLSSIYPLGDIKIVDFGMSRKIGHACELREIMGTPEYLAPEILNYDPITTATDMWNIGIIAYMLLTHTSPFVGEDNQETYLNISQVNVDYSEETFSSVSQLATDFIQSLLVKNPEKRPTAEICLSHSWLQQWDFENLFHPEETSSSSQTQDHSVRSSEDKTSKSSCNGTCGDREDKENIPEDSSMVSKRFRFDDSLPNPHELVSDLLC

Aurora kinase A = Aurora kinase A (Homo sapiens, UniProt O14965); assay: Inhibition of AurorA (unknown origin)
[9] = target: Tyrosine-protein kinase BTK (Homo sapiens, UniProt Q06187); assay: Inhibition of BTK (unknown origin)
[10] = target: Interleukin-1 receptor-associated kinase 4 (Homo sapiens, UniProt Q9NWZ3); assay: Inhibition of IRAK4 (unknown origin)
Chain of Interleukin-1 receptor-associated kinase 4 (Q9NWZ3 whole entry): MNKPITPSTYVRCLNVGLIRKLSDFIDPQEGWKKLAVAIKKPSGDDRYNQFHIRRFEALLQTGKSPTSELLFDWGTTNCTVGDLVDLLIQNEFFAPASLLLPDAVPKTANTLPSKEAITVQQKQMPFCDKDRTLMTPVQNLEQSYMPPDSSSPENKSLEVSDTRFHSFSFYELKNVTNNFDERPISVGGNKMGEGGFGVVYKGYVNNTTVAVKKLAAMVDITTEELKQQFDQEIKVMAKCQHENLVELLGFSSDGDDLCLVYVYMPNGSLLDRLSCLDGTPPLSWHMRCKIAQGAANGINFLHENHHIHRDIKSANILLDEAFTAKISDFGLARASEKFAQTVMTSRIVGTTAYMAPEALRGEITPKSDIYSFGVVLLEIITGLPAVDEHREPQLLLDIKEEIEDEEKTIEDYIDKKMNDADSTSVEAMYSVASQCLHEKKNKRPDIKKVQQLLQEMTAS

[11] = target: Tyrosine-protein kinase JAK3 (Homo sapiens, UniProt P52333); assay: Inhibition of JAK3 (unknown origin)
[12] = target: Ribosomal protein S6 kinase beta-1 (Homo sapiens, UniProt P23443); assay: Inhibition of P70S6K (unknown origin)
[13] = target: Serine/threonine-protein kinase pim-1 (Homo sapiens, UniProt P11309); assay: Inhibition of PIM1 (unknown origin)
[14] = target: Receptor-type tyrosine-protein kinase FLT3 (Homo sapiens, UniProt P36888); assay: Inhibition of FLT3 (unknown origin)
[15] = target: Epidermal growth factor receptor (Homo sapiens, UniProt P00533); assay: Inhibition of EGFR (unknown origin)
Chain of Epidermal growth factor receptor (P00533 whole entry): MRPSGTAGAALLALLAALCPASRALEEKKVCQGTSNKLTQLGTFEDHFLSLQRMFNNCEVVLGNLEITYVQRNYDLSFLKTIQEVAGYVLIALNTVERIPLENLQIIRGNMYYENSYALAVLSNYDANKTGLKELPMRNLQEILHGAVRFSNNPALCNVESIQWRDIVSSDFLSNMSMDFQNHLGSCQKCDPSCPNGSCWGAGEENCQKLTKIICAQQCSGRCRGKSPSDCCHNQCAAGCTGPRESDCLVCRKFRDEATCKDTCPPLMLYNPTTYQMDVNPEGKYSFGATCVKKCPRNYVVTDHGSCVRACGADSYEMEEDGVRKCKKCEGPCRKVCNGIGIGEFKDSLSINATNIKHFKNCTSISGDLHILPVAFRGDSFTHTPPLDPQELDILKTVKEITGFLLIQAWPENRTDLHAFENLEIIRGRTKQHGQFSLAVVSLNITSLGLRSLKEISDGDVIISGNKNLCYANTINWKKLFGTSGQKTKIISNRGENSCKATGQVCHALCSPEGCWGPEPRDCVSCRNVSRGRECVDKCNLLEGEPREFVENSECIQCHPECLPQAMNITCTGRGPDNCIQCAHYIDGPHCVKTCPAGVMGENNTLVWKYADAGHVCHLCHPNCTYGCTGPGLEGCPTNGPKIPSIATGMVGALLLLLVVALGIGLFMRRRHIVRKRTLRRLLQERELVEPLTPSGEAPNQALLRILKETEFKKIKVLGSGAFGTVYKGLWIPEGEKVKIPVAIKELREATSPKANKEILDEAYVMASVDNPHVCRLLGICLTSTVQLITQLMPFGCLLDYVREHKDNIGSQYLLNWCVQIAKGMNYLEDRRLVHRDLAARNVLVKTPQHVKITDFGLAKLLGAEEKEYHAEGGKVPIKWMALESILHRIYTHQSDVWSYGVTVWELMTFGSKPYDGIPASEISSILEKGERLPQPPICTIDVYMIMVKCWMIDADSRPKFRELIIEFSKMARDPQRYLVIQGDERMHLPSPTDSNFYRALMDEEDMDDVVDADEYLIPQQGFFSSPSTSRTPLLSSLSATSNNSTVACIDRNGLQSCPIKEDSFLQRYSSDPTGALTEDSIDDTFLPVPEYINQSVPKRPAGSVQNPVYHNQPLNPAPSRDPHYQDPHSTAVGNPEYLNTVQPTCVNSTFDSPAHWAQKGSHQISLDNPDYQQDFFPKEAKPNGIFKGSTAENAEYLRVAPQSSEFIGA

Chain of Cyclin-dependent kinase 7 (P50613 whole entry): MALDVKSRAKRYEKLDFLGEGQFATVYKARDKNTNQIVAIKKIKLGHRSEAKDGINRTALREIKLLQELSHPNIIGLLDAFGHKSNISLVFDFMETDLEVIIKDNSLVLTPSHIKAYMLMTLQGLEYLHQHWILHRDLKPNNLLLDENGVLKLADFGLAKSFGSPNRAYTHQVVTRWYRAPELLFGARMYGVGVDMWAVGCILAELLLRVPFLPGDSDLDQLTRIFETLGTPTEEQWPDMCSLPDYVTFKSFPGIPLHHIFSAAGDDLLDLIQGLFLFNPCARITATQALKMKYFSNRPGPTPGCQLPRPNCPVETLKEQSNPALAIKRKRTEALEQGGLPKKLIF

- IC50 [1]: > 10 µM
- IC50 (A549): 5.78 µM
- IC50 (MV4-11 [2]): 0.003 µM
- IC50 [3]: 0.0041 µM
- IC50 (PC-9): 0.03 µM
- IC50 (HT-29): 0.02 µM
- IC50 [4]: > 10 µM
SMILES: COC[C@@H](C)N[C@H]1CC[C@H](Nc2cc(-c3cccc(NCC4(C#N)CCOCC4)n3)c(Cl)cn2)CC1
- IC50 (KG-1): 0.02 µM
- IC50 (CESS): 0.01 µM
- IC50 (Rec1): 0.03 µM

- IC50 [1]: > 10 µM
- IC50 (Histone deacetylase 4): 1.08 µM
SMILES: N#CC1(CNc2cccc(-c3cc(Nc4cnn(Cc5ccc(C(=O)NO)cc5)c4)ncc3Cl)n2)CCOCC1

- IC50 [1]: > 10 µM
- IC50 (Histone deacetylase 4): > 20 µM
- IC50 [4]: > 10 µM
SMILES: CCCNNC(=O)CCCCCCn1cc(Nc2ncc(Cl)c(-c3cnc4ccccn34)n2)cn1

- IC50 [1]: > 10 µM
- IC50 (Histone deacetylase 4): 4.4 µM
SMILES: N#CC1(CNc2cccc(-c3cc(Nc4cnn(CCCCCCC(=O)NO)c4)ncc3Cl)n2)CCOCC1

- IC50 [1]: 0.566 µM
- IC50 (Histone deacetylase 4): > 10 µM
SMILES: O=C(CCCCCn1cc(Nc2ncc(Cl)c(-c3cnc4ccccn34)n2)cn1)NO

- IC50 [7]: > 10 µM
- IC50 [8]: > 10 µM
- IC50 (Aurora kinase A): > 10 µM
- IC50 [9]: > 10 µM
- IC50 [10]: > 10 µM
- IC50 [11]: > 10 µM
- IC50 [12]: > 10 µM
- IC50 [13]: > 10 µM
- IC50 [14]: > 10 µM
- IC50 (Histone deacetylase 4): > 20 µM
- IC50 [15]: > 10 µM
SMILES: N#CC1(CNc2cccc(-c3cc(Nc4cnn(Cc5ccc(C(=O)Nc6ccccc6N)cc5)c4)ncc3Cl)n2)CCOCC1

- IC50 [1]: > 10 µM
- IC50 (Histone deacetylase 4): 2.5 µM
SMILES: N#CC1(CNc2cccc(-c3cc(Nc4cnn(CCCCCC(=O)NO)c4)ncc3Cl)n2)CCOCC1

The remaining lines, values behind:

SMILES: COc1cc(F)ccc1-c1cc(Nc2ccc(/C=C/C(=O)Nc3ccccc3N)cc2)ncc1F
- IC50 (Histone deacetylase 3): 3.55 µM
- IC50 (Histone deacetylase 1): > 20 µM
- IC50 [3]: 0.0684 µM
- IC50 [5]: > 20 µM

SMILES: CCCNNC(=O)CCCCCn1cc(Nc2ncc(Cl)c(-c3cnc4ccccn34)n2)cn1
- IC50 [1]: > 10 µM
- IC50 (Histone deacetylase 4): > 20 µM
- IC50 [4]: > 10 µM

SMILES: O=C(CCCCCCC(=O)Nc1ccccc1)NO [VORINOSTAT]
- IC50 (KG-1): 0.79 µM

SMILES: N#CC1(CNc2cccc(-c3cc(Nc4cnn(CCCCCCC(=O)Nc5ccccc5N)c4)ncc3Cl)n2)CCOCC1
- IC50 [1]: > 10 µM
- IC50 (Histone deacetylase 4): > 20 µM

SMILES: Nc1ccn([C@@H]2O[C@H](CO)[C@@H](O)[C@@H]2O)c(=O)n1 [CYTARABINE]
- T/C (MV4-11 [6]): 33.41%

SMILES: CCCNNC(=O)CCCCCn1cc(Nc2ncc(Cl)c(-c3cnc4ccc(-c5ccccc5)cn34)n2)cn1
- IC50 [1]: > 10 µM
- IC50 (Histone deacetylase 4): > 20 µM

SMILES: COc1cc(F)ccc1-c1cc(Nc2cnn(CCCCCC(=O)NO)c2)ncc1F
- IC50 [1]: > 10 µM
- IC50 (Histone deacetylase 4): > 10 µM

SMILES: CCCNNC(=O)c1ccc(Cn2cc(Nc3ncc(Cl)c(-c4cnc5ccccn45)n3)cn2)cc1
- IC50 [7]: > 10 µM
- IC50 [1]: 0.973 µM
- IC50 [8]: > 10 µM
- IC50 (Aurora kinase A): > 10 µM
- IC50 [9]: 9.13 µM
- IC50 [10]: > 10 µM
- IC50 [11]: 2.38 µM
- IC50 [12]: 0.371 µM
- IC50 [13]: > 10 µM
- IC50 [14]: 0.0304 µM
- IC50 (Histone deacetylase 4): > 20 µM
- IC50 [15]: > 10 µM

SMILES: COc1cc(F)ccc1-c1cc(Nc2cnn(CCCCCCC(=O)NO)c2)ncc1F
- IC50 [1]: > 10 µM
- IC50 (Histone deacetylase 4): > 10 µM

SMILES: COc1cc(F)ccc1-c1cc(Nc2ccc(NC(=O)CCCCCCC(=O)Nc3ccccc3N)cc2)ncc1F
- IC50 [1]: > 10 µM
- IC50 (Histone deacetylase 4): > 20 µM

SMILES: O=C(/C=C/c1ccc(Nc2ncc(Cl)c(OC3CCCCC3)n2)cc1)NO
- IC50 (Histone deacetylase 3): 7.21 µM
- IC50 (Histone deacetylase 1): > 10 µM
- IC50 [3]: 7.89 µM
- IC50 [5]: 0.646 µM

SMILES: O=C(CCCCCCn1cc(Nc2ncc(Cl)c(-c3cnc4ccccn34)n2)cn1)NO
- IC50 [1]: 2.81 µM
- IC50 (Histone deacetylase 4): > 10 µM

SMILES: COc1cc(F)ccc1-c1cc(Nc2ccc(NC(=O)CCCCCCC(=O)NO)cc2)ncc1F
- IC50 [1]: > 10 µM
- IC50 (Histone deacetylase 4): > 10 µM

SMILES: CCCNNC(=O)c1ccc(Cn2cc(Nc3ncc(Cl)c(-c4cnc5ccc(-c6ccccc6)cn45)n3)cn2)cc1
- IC50 [1]: > 10 µM
- IC50 (Histone deacetylase 4): > 20 µM
- IC50 [4]: > 10 µM

Reference: ChEMBL document CHEMBL5584345, “Discovery of Novel 2-Aminopyridine-Based and 2-Aminopyrimidine-Based Derivatives as Potent CDK/HDAC Dual Inhibitors for the Treatment of Refractory Solid Tumors and Hematological Malignancies” (J Med Chem, 2024)
